The values below come from DBAASP.

In brackets after ≈: the same amount, converted by molar mass. Several values for one entry are separate records, joined by “and”; a condition that tells them apart may be missing. Identical values can stand only once.

Some test systems named below: Escherichia coli UB1005; Escherichia coli 078; Escherichia coli K99; Escherichia coli K88; Staphylococcus aureus; Bacillus subtilis 168; Pseudomonas aeruginosa; Escherichia coli B; Bacillus cereus; Shigella dysenteriae.
Common to all, as to assay: ≥ marks a high value that may be exact or a test limit, other limits are often not marked, values filed in µg/mL are converted to µM
Test [1] concerns Staphylococcus aureus ATCC 25923.
Test [2] has as its system Escherichia coli ATCC 25922.
Test [3] relates to Salmonella enterica subsp. enterica serovar Typhimurium ATCC 14028.
In test [4] the test system is Staphylococcus aureus ATCC 43300.
The subject of test [5] is Pseudomonas aeruginosa ATCC 27853.
Test [6] deals with Staphylococcus aureus ATCC 29213.
The test system of test [7] is Salmonella enterica subsp. enterica serovar Pullorum ATCC 7913.
The subject of test [8] is Staphylococcus epidermidis ATCC 12228.
Test [9] has as its system Candida tropicalis CGMCC 2.1975.
Test [10] has as its system Salmonella enterica subsp. enterica serovar Typhimurium C77-31.
Test [11] has as its system Candida parapsilosis CGMCC 2.3989.
In test [12] the test system is Candida albicans CGMCC 2.2086.
Test [13] relates to Streptococcus gordonii Challis DL1.
For test [14], the system named is Streptococcus sanguinis NY101.
Test [15] concerns Streptococcus mutans UA159.
In test [16] the test system is Pseudomonas aeruginosa PAK.
Test [17] has as its system Streptococcus mitis ATCC 903.
The test system of test [18] is Candida albicans ATCC 2002.
The test system of test [19] is Staphylococcus aureus ATCC 2592.
In test [20] the test system is Staphylococcus aureus SAP 0017.

Consider `CC[C@H](C)[C@H](NC(=O)[C@H](CCCN=C(N)N)NC(=O)[C@H](C)NC(=O)[C@H](C)N)C(=O)N[C@H](C(=O)N[C@@H](CC(C)C)C(=O)N[C@@H](CCCN=C(N)N)C(=O)N[C@@H](CC(=O)O)C(=O)N[C@@H](CCCN=C(N)N)C(=O)N[C@@H](Cc1ccccc1)C(=O)N[C@@H](CCCN=C(N)N)C(N)=O)[C@@H](C)CC` [AARIILRDRFR], for which the minimum inhibitory concentration (MIC) in [1] is above 128 µM; in the test with Escherichia coli UB1005, at least 128 µM; in test [2], above 128 µM; in [3], above 128 µM; in [4] it was above 128 µM; in [5] it was above 128 µM. Besides, the MIC in [6] was above 128 µM; in test [7], at least 128 µM; in [8], above 128 µM; in test [9], at least 128 µM; in the test on Escherichia coli 078, at least 128 µM; in test [10], at least 128 µM. In addition, the MIC (in test [11]; with Escherichia coli K99; against Escherichia coli K88; in [12]) was at least 128 µM each time.
With `CC[C@H](C)[C@H](NC(=O)[C@H](Cc1ccccc1)NC(=O)[C@H](Cc1cnc[nH]1)NC(=O)[C@H](CCCCN)NC(=O)[C@@H](NC(=O)[C@@H](N)Cc1ccccc1)[C@@H](C)CC)C(=O)N[C@@H](Cc1cnc[nH]1)C(=O)N[C@@H](CCCN=C(N)N)C(=O)N[C@@H](Cc1ccccc1)C(=O)N[C@@H](CO)C(=O)N[C@@H](C)C(=O)N[C@H](C(=O)N[C@@H](CCCN=C(N)N)C(=O)N[C@@H](Cc1c[nH]c2ccccc12)C(=O)N[C@@H](CCCN=C(N)N)C(=O)N[C@@H](CCCN=C(N)N)C(=O)N[C@@H](CC(C)C)C(=O)N[C@@H](CC(C)C)C(=O)N[C@@H](CCCCN)C(=O)N[C@@H](CCCCN)C(=O)N[C@@H](CC(C)C)C(=O)N[C@@H](Cc1cnc[nH]1)C(=O)N[C@@H](Cc1cnc[nH]1)C(=O)N[C@@H](CC(C)C)C(=O)N[C@@H](CC(C)C)C(=O)N[C@@H](Cc1cnc[nH]1)C(N)=O)[C@@H](C)O` [FIKHFIHRFSATRWRRLLKKLHHLLH], the minimum inhibitory concentration (MIC) in test [13] amounted to 9.43 µM (≈ 32 µg/mL); in test [14], 9.43 µM (≈ 32 µg/mL); in [15], 4.72 µM (≈ 16 µg/mL); in test [16], 9.43 µM (≈ 32 µg/mL); against Staphylococcus aureus, 4.72 µM (≈ 16 µg/mL); in [17], 9.43 µM (≈ 32 µg/mL).
Consider `CC[C@H](C)[C@H](NC(=O)[C@H](Cc1ccccc1)NC(=O)[C@H](Cc1cnc[nH]1)NC(=O)[C@H](CCCCN)NC(=O)[C@@H](NC(=O)[C@@H](N)Cc1ccccc1)[C@@H](C)CC)C(=O)N[C@@H](Cc1cnc[nH]1)C(=O)N[C@@H](CCCN=C(N)N)C(=O)N[C@@H](Cc1ccccc1)C(=O)N[C@@H](CO)C(=O)NCC(=O)NCC(=O)N[C@@H](CCCN=C(N)N)C(=O)N[C@@H](Cc1c[nH]c2ccccc12)C(=O)N[C@@H](CCCN=C(N)N)C(=O)N[C@@H](CCCN=C(N)N)C(=O)N[C@@H](CC(C)C)C(=O)N[C@@H](CC(C)C)C(=O)N[C@@H](CCCCN)C(=O)N[C@@H](CCCCN)C(=O)N[C@@H](CC(C)C)C(=O)N[C@@H](Cc1cnc[nH]1)C(=O)N[C@@H](Cc1cnc[nH]1)C(=O)N[C@@H](CC(C)C)C(=O)N[C@@H](CC(C)C)C(=O)N[C@@H](Cc1cnc[nH]1)C(N)=O` [FIKHFIHRFSGGRWRRLLKKLHHLLH], for which the minimum inhibitory concentration (MIC) in test [13] turned out to be 9.6 µM (≈ 32 µg/mL); in [14], 4.8 µM (≈ 16 µg/mL); in [15], 4.8 µM (≈ 16 µg/mL); in test [16], 9.6 µM (≈ 32 µg/mL); with Staphylococcus aureus, 9.6 µM (≈ 32 µg/mL); in [17], 18.7 µM (≈ 62.5 µg/mL).
Take `CC[C@H](C)[C@H](NC(=O)[C@H](CC(C)C)NC(=O)[C@H](Cc1cnc[nH]1)NC(=O)CNC(=O)[C@@H]1CCCN1C(=O)[C@@H](NC(=O)[C@H](CCCCN)NC(=O)[C@H](CO)NC(=O)[C@H](Cc1c[nH]c2ccccc12)NC(=O)[C@H](CCSC)NC(=O)CN)[C@@H](C)CC)C(=O)N[C@@H](CCCN=C(N)N)C(N)=O` [GMWSKIPGHLIR]: the MIC in the test on Bacillus subtilis 168 is at least 100 µM; in the test with Pseudomonas aeruginosa it was above 100 µM; in the test on Escherichia coli B, 25 µM (≈ 34.8 µg/mL); with Staphylococcus aureus, above 100 µM.
With `CC(C)C[C@H](NC(=O)[C@H](CC(C)C)NC(=O)[C@H](CCCCN)NC(=O)[C@H](CC(C)C)NC(=O)[C@H](CC(C)C)NC(=O)[C@H](CCC(N)=O)NC(=O)[C@H](CCCCN)NC(=O)[C@H](CC(C)C)NC(=O)[C@H](CC(C)C)NC(=O)[C@H](CCC(N)=O)NC(=O)[C@@H](N)CC(C)C)C(=O)N[C@@H](CCCCN)C(=O)N[C@@H](CCC(N)=O)C(=O)N[C@@H](Cc1ccccc1)C(N)=O` [LQLLKQLLKLLKQF], the MIC stood at 4.63 µM (≈ 8 µg/mL) in test [13]; 4.63 µM (≈ 8 µg/mL) in [14]; 4.63 µM (≈ 8 µg/mL) in [15]; 4.63 µM (≈ 8 µg/mL) in test [16]; 9.27 µM (≈ 16 µg/mL) with Staphylococcus aureus; 9.27 µM (≈ 16 µg/mL) in test [17].
Consider `CSCC[C@@H]1NC(=O)[C@H](CC(C)C)NC(=O)[C@H](C)NC(=O)[C@H](CCCN=C(N)N)NC(=O)[C@H](CC(N)=O)NC(=O)[C@@H](NC(=O)[C@H](CCCCN)NC(=O)[C@H](CC(N)=O)NC(=O)[C@H](CCCN=C(N)N)NC(=O)[C@@H]2CCCN2C(=O)[C@H](CCSC)NC(=O)[C@H](CO)NC(=O)[C@H](CC(C)C)NC(=O)[C@H](C)NC(=O)[C@@H](N)CC(N)=O)CSSC[C@@H](C(=O)N[C@@H](Cc2ccccc2)C(=O)NCC(=O)O)NC1=O` [NALSMPRNKCNRALMCFG], for which the minimum inhibitory concentration (MIC) in test [2] was 24.7 µM (≈ 50 µg/mL); in test [18], 3.08 µM (≈ 6.24 µg/mL); against Pseudomonas aeruginosa it was 6.17 µM (≈ 12.5 µg/mL); in the test on Bacillus cereus it was 6.17 µM (≈ 12.5 µg/mL); in [19], 6.17 µM (≈ 12.5 µg/mL); in the test on Shigella dysenteriae, 3.08 µM (≈ 6.24 µg/mL).
For the compound `CC[C@H](C)[C@H](NC(=O)[C@H](Cc1ccccc1)NC(=O)[C@H](Cc1cnc[nH]1)NC(=O)[C@H](CCCCN)NC(=O)[C@@H](NC(=O)[C@H](Cc1ccccc1)NC(=O)[C@@H](NC(=O)[C@H](C)NC(=O)[C@H](CO)NC(=O)[C@H](Cc1cnc[nH]1)NC(=O)[C@H](CC(C)C)NC(=O)[C@H](CC(C)C)NC(=O)[C@H](Cc1cnc[nH]1)NC(=O)[C@H](Cc1cnc[nH]1)NC(=O)[C@H](CC(C)C)NC(=O)[C@H](CCCCN)NC(=O)[C@H](CCCCN)NC(=O)[C@H](CC(C)C)NC(=O)[C@H](CC(C)C)NC(=O)[C@H](CCCN=C(N)N)NC(=O)[C@H](CCCN=C(N)N)NC(=O)[C@H](Cc1c[nH]c2ccccc12)NC(=O)[C@@H](N)CCCN=C(N)N)[C@@H](C)O)[C@@H](C)CC)C(=O)N[C@@H](Cc1cnc[nH]1)C(=O)N[C@@H](CCCN=C(N)N)C(=O)N[C@@H](Cc1ccccc1)C(N)=O` [RWRRLLKKLHHLLHSATFIKHFIHRF], the minimal inhibitory concentration (MIC) in [13] was found to be 4.72 µM (≈ 16 µg/mL); in test [14] it was 4.72 µM (≈ 16 µg/mL); in test [15], 2.36 µM (≈ 8 µg/mL); in test [16] it was 9.43 µM (≈ 32 µg/mL); against Staphylococcus aureus, 9.43 µM (≈ 32 µg/mL); in [17], 4.72 µM (≈ 16 µg/mL).
For the compound `CC[C@H](C)[C@H](NC(=O)[C@H](C)NC(=O)[C@H](CCCN=C(N)N)NC(=O)[C@H](CC(C)C)NC(=O)[C@@H](NC(=O)[C@H](CCCCN)NC(=O)[C@H](CC(C)C)NC(=O)[C@H](CC(C)C)NC(=O)[C@H](Cc1c[nH]c2ccccc12)NC(=O)[C@H](CCCCN)NC(=O)[C@@H](NC(=O)[C@@H](N)C(C)C)[C@@H](C)CC)[C@@H](C)CC)C(N)=O` [VIKWLLKILRAI], the MIC in [20] is 1 µM and 2 µM.

A word on the MIC: it is the least concentration at which growth counts as inhibited. A low value points to a more susceptible organism.
